ChEMBL document CHEMBL5303304, “EUbOPEN Chemogenomics Library - IncuCyte” (2023)

Columns and labels:
Format in all cases: toxicity, cell-based
[1] = system: HEK-293T; assay: Incucyte cell viability with HEK293T; settings: human, 10 µM, compound concentration 10 uM
[2] = system: Fibroblast; assay: Incucyte cell viability with human fibroblast; settings: 10 µM, compound concentration 10 uM
[3] = system: U2OS; assay: Incucyte cell viability with U2OS; settings: human, 10 µM, compound concentration 10 uM
Note: unitless GR value; below 1 slowed growth and below 0 cell loss.

Row | SMILES | Growth Rate ([1]; 0 h, replicate number 1) | Growth Rate ([1]; 6 h, replicate number 2) | Growth Rate ([1]; 12 h, replicate number 2) | Growth Rate ([2]; 0 h, replicate number 1) | Growth Rate ([2]; 6 h, replicate number 1) | Growth Rate ([2]; 12 h, replicate number 2) | Growth Rate ([2]; 18 h, replicate number 1) | Growth Rate ([2]; 24 h, replicate number 1) | Growth Rate ([2]; 24 h, replicate number 2) | Growth Rate ([3]; 6 h, replicate number 1) | Growth Rate ([3]; 12 h, replicate number 2) | Growth Rate ([3]; 18 h, replicate number 2) | Growth Rate ([3]; 24 h, replicate number 2) | Growth Rate ([1]; 0 h, replicate number 2) | Growth Rate ([2]; 18 h, replicate number 2) | Growth Rate ([3]; 0 h, replicate number 2) | Growth Rate ([3]; 6 h, replicate number 2) | Growth Rate ([3]; 24 h, replicate number 1) | Growth Rate ([2]; 0 h, replicate number 2) | Growth Rate ([3]; 12 h, replicate number 1) | also measured
1 | CC(C)c1nc2c(c3c1[C@@H](c1ccc(C(F)(F)F)cc1)OC31CCOCC1)[C@@H](O)CC(C)(C)C2.Cl | 0.12 | 0.11 | 0.61 | -1 | -0.53 | 0.76 | 0.15 | 0.49 | 0.96 | 0.88 | 0.78 | 0.78 | 0.87 |  |  |  |  |  |  |  | Growth Rate ([1]; 12 h, replicate number 1): 0.73; Growth Rate ([1]; 18 h, replicate number 1): 0.63; Growth Rate ([1]; 18 h, replicate number 2): 0.97; Growth Rate ([1]; 24 h, replicate number 1): 0.78; Growth Rate ([1]; 24 h, replicate number 2): 0.8; Growth Rate ([2]; 12 h, replicate number 1): -0.05
2 | C[C@@H]1C[C@H](C)CN(c2ncc(Cl)c(Nc3ccc4c(c3)cc(OC(C)(C)C(=O)O)c(=O)n4C)n2)C1 | 0.98 |  |  |  |  | 0.53 |  |  | 0.99 | 0.72 | 0.42 | 0.57 | 0.72 | 0.84 | 0.8 | -0.87 | -0.32 | 0.78 |  |  | Growth Rate ([3]; 0 h, replicate number 1): 0.85
3 | CN1CCC(C#N)(NC(=O)[C@@H](NC(=O)N2CCOCC2)C(C)(C)C)CC1 | 0.92 |  |  |  | 0.5 |  | 0.98 | 0.99 |  |  |  | 1 |  | 0.91 | 0.75 | 0.61 | 0.92 | 0.92 | -0.99 | 0.98 | Growth Rate ([1]; 6 h, replicate number 1): 0.8; Growth Rate ([3]; 18 h, replicate number 1): 0.98
4 | Cc1nc2cccnc2n2c(-c3cc(C(C)(C)O)ncc3Cl)nnc12 | 0.72 |  |  | -1 | 0.43 |  | 0.63 |  |  |  | 0.74 | 0.95 |  | -0.52 |  | 0.27 | 0.32 |  | -0.22 |  | 
5 | N#Cc1ccc(C#CC[C@@H](C#N)NC(=O)[C@@H]2CCCCN2)cc1F | 0.68 | 0.76 | 0.89 | -1 | 0.62 | 1 | 0.73 | 0.74 |  | 0.57 | 0.73 | 0.85 | 0.86 |  | 0.9 | 0.31 |  |  | -0.9 | 0.92 | Growth Rate ([2]; 12 h, replicate number 1): 0.89; Growth Rate ([3]; 0 h, replicate number 1): 0.67
6 | Cn1cnc(Cn2ccc3ccc(CNCc4[nH]c5ccccc5c4[C@@H]4NC(=O)c5ccc(O)cc54)cc32)c1 | 0.61 |  |  | -0.98 | 0.3 | 0.75 | 0.8 | 0.98 | 0.88 | 0.54 | 0.81 | 0.85 |  |  | 0.38 |  | 0.95 | 0.95 | 0.6 | 0.8 | Growth Rate ([2]; 6 h, replicate number 2): -0.87; Growth Rate ([3]; 18 h, replicate number 1): 0.99
7 | CCN1C(=O)c2cc(C)ccc2N(C)c2ncccc21 | 0.6 | 1 | 0.41 | -1 | 0.13 | 0.29 | 0.79 |  |  |  | 0.85 | 0.7 | 0.8 | 0.45 | 0.88 | 0.61 | 0.81 |  | -0.91 | 0.87 | Growth Rate ([1]; 6 h, replicate number 1): 0.52; Growth Rate ([1]; 12 h, replicate number 1): 0.32; Growth Rate ([1]; 18 h, replicate number 1): 0.42; Growth Rate ([1]; 18 h, replicate number 2): 0.71; Growth Rate ([1]; 24 h, replicate number 1): 0.65; Growth Rate ([1]; 24 h, replicate number 2): 0.74; Growth Rate ([2]; 6 h, replicate number 2): 0.79; Growth Rate ([2]; 12 h, replicate number 1): 0.88
8 | CS(=O)(=O)O.C[C@H](NC(=O)c1cnc2n1[C@](C)(Cc1ccc(C#N)cc1)C(=O)N2c1cc(Cl)c(F)c(Cl)c1)C(=O)NC1(c2ccccn2)CC1 | 0.44 |  |  | -1 | 0.73 | 0.94 | 0.98 | 0.73 | 0.87 | 0.8 | 0.49 | 0.81 |  | 0.94 | 0.61 | -0.46 | 0.54 | 0.82 |  | 0.92 | Growth Rate ([2]; 6 h, replicate number 2): 0.85; Growth Rate ([3]; 18 h, replicate number 1): 0.98
